Measurements reported in BigSolDB 2.1.

Cc1nc2n(c(=O)c1CCN1CCC(c3noc4cc(F)ccc34)CC1)CCCC2
solubility (mole fraction) (in ethanol, 283.15 K): 0.00105 | solubility (mole fraction) (in ethanol, 283.16 K): 0.00104 | solubility (mole fraction) (in ethanol, 288.15 K): 0.00138 | solubility (mole fraction) (in ethanol, 288.16 K): 0.00138 | solubility (mole fraction) (in ethanol, 293.15 K): 0.0017 | solubility (mole fraction) (in ethanol, 293.16 K): 0.0017 | solubility (mole fraction) (in ethanol, 298.15 K): 0.00216 | solubility (mole fraction) (in ethanol, 303.15 K): 0.00272 | solubility (mole fraction) (in ethanol, 308.15 K): 0.0035 | solubility (mole fraction) (in ethanol, 313.15 K): 0.00438 | solubility (mole fraction) (in methanol, 283.15 K): 0.00239 | solubility (mole fraction) (in methanol, 283.16 K): 0.00239 | solubility (mole fraction) (in methanol, 288.15 K): 0.00294 | solubility (mole fraction) (in methanol, 288.16 K): 0.00294 | solubility (mole fraction) (in methanol, 293.15 K): 0.00363 | solubility (mole fraction) (in methanol, 293.16 K): 0.00363 | solubility (mole fraction) (in methanol, 298.15 K): 0.00443 | solubility (mole fraction) (in methanol, 298.16 K): 0.00443 | solubility (mole fraction) (in methanol, 303.15 K): 0.00546 | solubility (mole fraction) (in methanol, 303.16 K): 0.00546 | solubility (mole fraction) (in methanol, 308.15 K): 0.00673 | solubility (mole fraction) (in methanol, 308.16 K): 0.00674 | solubility (mole fraction) (in methanol, 313.15 K): 0.0083 | solubility (mole fraction) (in methanol, 313.16 K): 0.0083 | solubility (mole fraction) (in methanol, 318.15 K): 0.0101 | solubility (mole fraction) (in methanol, 318.16 K): 0.0101 | solubility (mole fraction) (in methanol, 323.15 K): 0.0121 | solubility (mole fraction) (in methanol, 323.16 K): 0.0121 | solubility (mole fraction) (in methanol, 328.15 K): 0.0148 | solubility (mole fraction) (in methanol, 328.16 K): 0.0148 | solubility (mole fraction) (in water, 283.15 K): 4.63e-08 | solubility (mole fraction) (in water, 283.16 K): 4.63e-08 | solubility (mole fraction) (in water, 288.15 K): 6.24e-08 | solubility (mole fraction) (in water, 288.16 K): 6.24e-08 | solubility (mole fraction) (in water, 293.15 K): 8.15e-08 | solubility (mole fraction) (in water, 293.16 K): 8.15e-08 | solubility (mole fraction) (in water, 298.15 K): 1.08e-07 | solubility (mole fraction) (in water, 298.16 K): 1.08e-07 | solubility (mole fraction) (in water, 303.15 K): 1.38e-07 | solubility (mole fraction) (in water, 303.16 K): 1.38e-07 | solubility (mole fraction) (in water, 308.15 K): 1.83e-07 | solubility (mole fraction) (in water, 308.16 K): 1.83e-07 | solubility (mole fraction) (in water, 313.15 K): 2.38e-07 | solubility (mole fraction) (in water, 313.16 K): 2.38e-07 | solubility (mole fraction) (in water, 318.15 K): 2.91e-07 | solubility (mole fraction) (in water, 318.16 K): 2.91e-07 | solubility (mole fraction) (in water, 323.15 K): 3.81e-07 | solubility (mole fraction) (in water, 323.16 K): 3.81e-07 | solubility (mole fraction) (in water, 328.15 K): 4.79e-07 | solubility (mole fraction) (in water, 328.16 K): 4.79e-07
